Laboratory results from ChEMBL document CHEMBL1138983, “Design, synthesis, and evaluation of novel 6-chloro-/fluorochromone derivatives as potential topoisomerase inhibitor anticancer agents” (2006).

How the values were obtained:
Ehrlich [1] = assay: Cytotoxicity against Ehrlich ascites carcinoma cells at 125 ug/ml; type: functional, Mus musculus
Ehrlich [2] = assay: Cytotoxicity against Ehrlich ascites carcinoma cells at 250 ug/ml; type: functional, Mus musculus
Ehrlich [3] = assay: Cytotoxicity against Ehrlich ascites carcinoma cells at 500 ug/ml; type: functional, Mus musculus
Mus musculus [4] = assay: Effect on weight variation in Ehrlich carcinoma bearing Swiss Albino mice 9 days post dose administered ip; type: functional
Mus musculus [5] = assay: Increase in life span in Ehrlich carcinoma bearing Swiss Albino mice 9 days post dose administered ip; type: functional
Mus musculus [6] = assay: Median survival time in Ehrlich carcinoma bearing Swiss Albino mice 9 days post dose administered ip; type: functional
Mus musculus [7] = assay: Increase in life span in Ehrlich carcinoma bearing Swiss Albino mice 9 days post dose at 3.5 mg/kg, ip; type: functional, organism-based; parameters: dose 3.5 mg/kg
Mus musculus [8] = assay: Median survival time in Ehrlich carcinoma bearing Swiss Albino mice 9 days post dose at 3.5 mg/kg, ip; type: functional, organism-based; parameters: dose 3.5 mg/kg
Mus musculus [9] = assay: Effect on weight variation in Ehrlich carcinoma bearing Swiss Albino mice 9 days post dose at 3.5 mg/kg, ip; type: functional, organism-based; parameters: dose 3.5 mg/kg

Row | Compound | Activity (Ehrlich [1]) | Activity (Ehrlich [2]) | Activity (Ehrlich [3]) | Activity (Mus musculus [4]) | Activity (Mus musculus [5]) | MST (Mus musculus [6]) | Activity (Mus musculus [7]) | MST (Mus musculus [8]) | Activity (Mus musculus [9])
1 | O=Cc1c(N2CCCC2)oc2ccc(Cl)cc2c1=O | 90% | 100% | 100% | – | – | – | – | – | –
2 | O=Cc1c(N2CCOCC2)oc2cc(N3CCOCC3)c(F)cc2c1=O | 0% | 0% | 70% | -15.89% | 16.9% | 11.14 days | – | – | –
3 | O=Cc1c(N2CCOCC2)oc2ccc(Cl)cc2c1=O | 60% | 100% | 100% | -16.81% | 23.1% | 12 days | – | – | –
4 | CISPLATIN | – | – | – | – | – | – | 75.4% | 17.3 days | -17.3%
5 | O=Cc1c(N2CCCCC2)oc2cc(N3CCCCC3)c(F)cc2c1=O | 100% | 100% | 100% | -9.5% | 17.9% | 11.6 days | – | – | –
6 | O=Cc1c(N2CCCCC2)oc2ccc(Cl)cc2c1=O | 100% | 100% | 100% | – | – | – | – | – | –
7 | CN1CCN(c2cc3oc(N4CCN(C)CC4)c(C=O)c(=O)c3cc2F)CC1 | 0% | 0% | 20% | – | – | – | – | – | –
8 | CN1CCN(c2oc3ccc(Cl)cc3c(=O)c2C=O)CC1 | 50% | 60% | 60% | – | – | – | – | – | –
